The text below walks through data of paper PMC12966373 (Nature Communications, 2026).

Series [1] relates to U2OS cells. Briefly: Coacervate uptake and stability over 5 days in U2OS cells. The settings on record: particles pre-assembled at 0.5 mg/mL, diluted 1:10 to 1:3 in media; 4 h and 24 h. The format is cell-based, human.
Series [2] deals with primary human monocytes. Briefly: Coacervate uptake in primary human monocytes. The format is cell-based. The settings on record: particles pre-assembled at 0.5 mg/mL, diluted 1:10 to 1:3 in media; 4 h and 24 h.
The nature of series [3]: Coacervate assembly via pH shift: size and number by microscopy. The following applies: peptide 0.5 mg/mL or higher. The format is physicochemical.
For series [4], the system named is B16-F10 murine melanoma cells. Briefly: Coacervate uptake in B16-F10 cells. The settings on record: particles pre-assembled at 0.5 mg/mL, diluted 1:10 to 1:3 in media; 4 h and 24 h. It is filed as cell-based, mouse.
The conditions of series [5]: cited from earlier work.

For GHGVYGHGVYGHGPYGHGPYGHGLYW [HBpep], the uptake by cells result in series [1], in series [2] and in series [4] was “highly efficient uptake” in each case. The average particle diameter in series [3] is listed as above 2 µm. Further, in series [5] (pH 4.5), the “solubility in acidic buffer” value was “largely soluble”. For the same substance, the “behaviour at physiological pH” value in series [5] (pH 7.4, standard conditions) is recorded as “phase separate”.
